The values below come from patent US20120252853A1, “Positive allosteric modulators of nicotinic acetylcholine receptor” (H. Lundbeck A/S, priority 2011, published 2012).

The experiment has as its target human α7 receptor (Homo sapiens, UniProt P36544). The experiment in a line: α7 NNR flux assay (FDSS Ca assay). Type of experiment: cell-based. As to conditions: positive allosteric modulation; rat GH4C1 cell line stably expressing human α7; acetylcholine 20 μM; % modulation relative to PNU-120596 set to 100%. Here is the method:
In this version of the assay, the human α7 receptor is stably expressed in the rat GH4C1 cell line. The assay was used to identify positive allosteric modulators (PAMs) of the α7 receptor. Activation of the channel was measured by loading cells with the calcium-sensitive fluorescent dye Calcium-4 (Assay kit from Molecular Devices), and then measuring real-time changes in fluorescence upon treatment with test compounds.
The cell line ChanClone GH4C1-nAChRalpha7 from Genionics was seeded from frozen stock in 384-well plates in culture media 2-3 days before experiment to form an approximately 80% confluent layer on the day of experiment.
The cell culture were split into “22.5 cm×22.5 cm”-plates with approximately 100×10^3 cells/cm^2. After four days incubation in a humidified incubator at 37° C. and 5% CO2, it had grown to an 80-90% confluent layer, and the cells were harvested.
Two or three days before the experiment the cells were seeded in 384 well plates from Greiner bio-one (781946, CELLCOAT, Poly-D-Lysine, black, μClear).
The cells were seeded in 384 well plates with 30 μL/well (30000 cells/well) while stirring the cell suspension or otherwise preventing the cells from precipitating. The plates were incubated at room temperature for 30-45 minutes. The plates were placed in incubator for two days (37° C. and 5% CO2).
The loading buffer was 5% v/v Calcium-4 Kit and 2.5 mM Probenecid in assay buffer.
Culture media were removed from the cell plates and 20 μL loading buffer was added in each well. The cell plates were placed in trays and incubated 90 minutes in the incubator (37° C.). Thereafter the plates were incubated 30 minutes at room temperature, still protected from light. Now the cell plates were ready to run in the Functional Drug Screening System (FDSS) The assay buffer was HBSS with 20 mM HEPES, pH 7.4 and 3 mM CaCl2.
200 nL 10 mM compound solution in DMSO was diluted in 50 μL assay buffer. The final test concentrations in the cell plates were 20-10-5-2.5-1.25-0.625-0.312-0.156-0.078-0.039 μM. Assay buffer and 3 μM PNU-120596 were used for control:
The agonist acetylcholine was added to a final concentration of 20 μM (˜EC100). In the FDSS7000 the Ex480-Em540 was measured with 1 second intervals. The baseline was made of 5 frames before addition of test compounds, and 95 frames more were made before addition of acetylcholine. The measurement stopped 30 frames after the 2nd addition. Raw data for each well were collected as “the maximum fluorescence count” in the interval 100-131 seconds and as “the average fluorescence count” in the interval 96-100 seconds. The positive allosteric modulation in the 2nd addition was the enhancement of agonist response with test compound compared to agonist alone.
Results were calculated as % modulation of test compound compared to the reference PNU-120596 set to 100%.

human α7 receptor, sequence (P36544 23-502): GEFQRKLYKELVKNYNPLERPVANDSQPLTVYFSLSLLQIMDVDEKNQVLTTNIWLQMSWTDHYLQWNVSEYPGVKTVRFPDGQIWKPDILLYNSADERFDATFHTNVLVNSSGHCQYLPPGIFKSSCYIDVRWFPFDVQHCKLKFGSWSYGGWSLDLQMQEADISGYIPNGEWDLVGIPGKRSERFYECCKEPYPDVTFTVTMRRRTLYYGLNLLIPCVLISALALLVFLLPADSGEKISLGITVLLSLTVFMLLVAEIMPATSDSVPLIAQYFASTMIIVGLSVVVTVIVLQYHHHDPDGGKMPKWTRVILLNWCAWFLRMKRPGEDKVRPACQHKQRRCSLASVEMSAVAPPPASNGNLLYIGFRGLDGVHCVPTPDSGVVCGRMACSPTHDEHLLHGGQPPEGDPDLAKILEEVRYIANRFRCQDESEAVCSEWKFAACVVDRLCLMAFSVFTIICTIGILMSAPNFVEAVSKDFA

In general, EC50 refers to the midpoint of the concentration-response curve. Read a high EC50 as a less potent agent. With `Cc1cc2cc(CNC(=O)c3ncc(C)o3)ccc2[nH]1` [Compound 116, 5-methyl-N-[(2-methyl-1H-indol-5-yl)methyl]oxazole-2-carboxamide], a half-maximal response (EC50) required 9.9 µM.
Consider `Cc1cc2cc(CNC(=O)c3ccsc3)ccc2[nH]1` [Compound 6, N-[(2-methyl-1H-indol-5-yl)methyl]thiophene-3-carboxamide], for which the EC50 amounted to 0.52 µM. This EC50 lies about 19-fold lower than the previous one.
To `COCc1cc(C(=O)N[C@H](C)c2ccc3[nH]c(C)cc3c2)on1` [Compound 112, 3-(methoxymethyl)-N-[(1R)-1-(2-methyl-1H-indol-5-yl)ethyl]isoxazole-5-carboxamide] belongs 1.1 µM.
`COCCn1ccc(C(=O)NCc2ccc3[nH]c(C)cc3c2)n1` [Compound 95, 1-(2-methoxyethyl)-N-[(2-methyl-1H-indol-5-yl)methyl]pyrazole-3-carboxamide]: the EC50 came to 7.7 µM.
For `Cc1cc2cc(CNC(=O)c3cc(C)n(C)n3)ccc2[nH]1` [Compound 12, 1,5-dimethyl-N-[(2-methyl-1H-indol-5-yl)methyl]pyrazole-3-carboxamide], it took 9.1 µM to reach a half-maximal effect (EC50).
Molecule `Cc1cc2cc(CNC(=O)c3nnc(C)o3)ccc2[nH]1` [Compound 74, 5-methyl-N-[(2-methyl-1H-indol-5-yl)methyl]-1,3,4-oxadiazole-2-carboxamide] had a concentration giving a half-maximal response (EC50) of 6 µM.
To `COCc1cc(C(=O)NCc2ccc3[nH]c(C(F)(F)F)cc3c2)on1` [Compound 114, 3-(methoxymethyl)-N-[[2-(trifluoromethyl)-1H-indol-5-yl]methyl]isoxazole-5-carboxamide] belongs 5 µM; to `Cc1cc2cc(CNC(=O)c3ccc(Cl)s3)ccc2[nH]1` [Compound 3, 5-Chloro-thiophene-2-carboxylic acid (2-methyl-1H-indol-5-ylmethyl)-amide], 0.13 µM; to `Cc1cc2cc(CNC(=O)c3cnn(CCF)c3)ccc2[nH]1` [Compound 99, 1-(2-fluoroethyl)-N-[(2-methyl-1H-indol-5-yl)methyl]pyrazole-4-carboxamide], 6.4 µM.
As to `Cc1cc2cc([C@@H](C)NC(=O)c3cnc(C)s3)ccc2[nH]1` [Compound 42, 2-methyl-N-[(1R)-1-(2-methyl-1H-indol-5-yl)ethyl]thiazole-5-carboxamide], the EC50 was found to be 5.6 µM. This EC50 and that of the molecule before are within 1.5-fold of each other.
To `COc1cc(C(=O)NC(C)c2ccc3[nH]c(C)cc3c2)on1` (racemic) [Compound 18, 3-methoxy-N-[1-(2-methyl-1H-indol-5-yl)ethyl]isoxazole-5-carboxamide] belongs 6.7 µM.
As for `Cc1cc2cc(CNC(=O)c3sccc3Cl)ccc2[nH]1` [Compound 4, 3-chloro-N-[(2-methyl-1H-indol-5-yl)methyl]thiophene-2-carboxamide], the figure is 2.9 µM.
As for `CCc1cc(C(=O)NCc2ccc3[nH]c(C)cc3c2)no1` [Compound 75, 5-ethyl-N-[(2-methyl-1H-indol-5-yl)methyl]isoxazole-3-carboxamide], the figure is 2.1 µM; as for `Cc1cc(C(=O)NCc2ccc3c(ccn3C(F)(F)F)c2)on1` [Compound 80, 3-methyl-N-[[1-(trifluoromethyl)indol-5-yl]methyl]isoxazole-5-carboxamide], 5.7 µM; as for `Cc1cc2cc(CNC(=O)c3cnn(CC(F)(F)F)c3)ccc2n1C(F)F` [Compound 69, N-[[1-(difluoromethyl)-2-methyl-indol-5-yl]methyl]-1-(2,2,2-trifluoroethyl)pyrazole-4-carboxamide], 4.2 µM.
Consider `Cc1cc(C(=O)N[C@@H](C)c2ccc3[nH]c(C)cc3c2F)on1` [Compound 54, N-[(1S)-1-(4-fluoro-2-methyl-1H-indol-5-yl)ethyl]-3-methyl-isoxazole-5-carboxamide], for which the EC50 was greater than 20 µM.
Regarding `Cc1cc(C(=O)NCc2ccc3c(ccn3C(F)F)c2)on1` [Compound 63, N-[[1-(difluoromethyl)indol-5-yl]methyl]-3-methyl-isoxazole-5-carboxamide], the concentration giving a half-maximal response (EC50) is 5.8 µM.
`O=C(NCc1ccc2[nH]c(C(F)F)cc2c1)c1cnn(CC(F)(F)F)c1` [Compound 91, N-[[2-(difluoromethyl)-1H-indol-5-yl]methyl]-1-(2,2,2-trifluoroethyl)pyrazole-4-carboxamide]: the response was half-maximal at 1.7 µM (EC50).
As for `Cc1cc2cc(CNC(=O)c3cc(C(C)(C)C)on3)ccc2[nH]1` [Compound 87, 5-tert-butyl-N-[(2-methyl-1H-indol-5-yl)methyl]isoxazole-3-carboxamide], the figure is 2.6 µM; as for `Cc1cc2cc(CNC(=O)c3onc(C)c3Cl)ccc2[nH]1` [Compound 56, 4-chloro-3-methyl-N-[(2-methyl-1H-indol-5-yl)methyl]isoxazole-5-carboxamide], 4.3 µM; as for `COc1cc(C(=O)NCc2ccc3[nH]c(C)cc3c2)on1` [Compound 19, 3-methoxy-N-[(2-methyl-1H-indol-5-yl)methyl]isoxazole-5-carboxamide], 4.6 µM.
`Cc1cc2cc(CNC(=O)c3ccn(C)c3)ccc2[nH]1` [Compound 37, 1-methyl-N-[(2-methyl-1H-indol-5-yl)methyl]pyrrole-3-carboxamide]: the half-maximal effective concentration (EC50) amounted to 9.8 µM.
`Cc1cc(C(=O)NCc2ccc3[nH]c(C)c(C)c3c2)on1` [Compound 41, N-[(2,3-dimethyl-1H-indol-5-yl)methyl]-3-methyl-isoxazole-5-carboxamide] yielded a half-maximal effective concentration (EC50) of 7.7 µM.
To `Cc1cc2cc(CNC(=O)c3sc(=O)n(C)c3C)ccc2[nH]1` [Compound 60, 3,4-dimethyl-N-[(2-methyl-1H-indol-5-yl)methyl]-2-oxo-thiazole-5-carboxamide] belongs 4.1 µM; to `Cc1cc2cc(CNC(=O)c3cnn4c3CCC4)ccc2[nH]1` [Compound 117, N-[(2-methyl-1H-indol-5-yl)methyl]-5,6-dihydro-4H-pyrrolo[1,2-b]pyrazole-3-carboxamide], 7 µM; to `Cc1cc(C(=O)NCc2ccc3[nH]c(C#N)cc3c2)sn1` [Compound 120, N-[(2-cyano-1H-indol-5-yl)-methyl]-3-methyl-isothiazole-5-carboxamide], 3.3 µM.
As for `Cc1cc(C(=O)N[C@H](C)c2ccc3[nH]c(C#N)cc3c2)on1` [Compound 121, N-[(1R)-1-(2-cyano-1H-indol-5-yl)ethyl]-3-methyl-isoxazole-5-carboxamide], the figure is 4.8 µM; as for `Cc1cc2cc(CNC(=O)c3ccco3)ccc2[nH]1` [Compound 10, N-[(2-methyl-1H-indol-5-yl)methyl]furan-2-carboxamide], 4 µM.
As for `Cc1cc2cc(CNC(=O)c3nccs3)ccc2[nH]1` [Compound 20, N-[(2-methyl-1H-indol-5-yl)methyl]thiazole-2-carboxamide], the figure is 3.3 µM.
As to `Cc1cc2cc(CNC(=O)c3sccc3C)ccc2[nH]1` [Compound 9, 3-methyl-N-[(2-methyl-1H-indol-5-yl)methyl]thiophene-2-carboxamide], the 50% effective concentration (EC50) turned out to be 1.8 µM.
As for `Cc1cc(C(=O)NCc2ccc3[nH]c(CC(F)(F)F)cc3c2)on1` [Compound 108, 3-methyl-N-[[2-(2,2,2-trifluoroethyl)-1H-indol-5-yl]methyl]isoxazole-5-carboxamide], the figure is 7.7 µM.
Molecule `Cc1cc2cc([C@@H](C)NC(=O)c3cnn(C)c3)ccc2[nH]1` [Compound 44, 1-methyl-N-[(1R)-1-(2-methyl-1H-indol-5-yl)ethyl]pyrazole-4-carboxamide] had an EC50 of 6.1 µM.
Take `Cc1cc2cc(CNC(=O)c3ccoc3)ccc2[nH]1` [Compound 11, N-[(2-methyl-1H-indol-5-yl)methyl]furan-3-carboxamide]: the EC50 was 2.4 µM. This EC50 is about 2.5-fold lower than that of the molecule before.
As for `Cc1cc2cc(CNC(=O)c3cc4n(n3)CCC4)ccc2[nH]1` [Compound 118, N-[(2-methyl-1H-indol-5-yl)methyl]-5,5-dihydro-4H-pyrrolo[1,2-b]pyrazole-2-carboxamide], the figure is 7.2 µM; as for `Cc1cc(C(=O)NCc2cc3cc(C)[nH]c3cc2F)on1` [Compound 104, N-[(6-fluoro-2-methyl-1H-indol-5-yl)methyl]-3-methyl-isoxazole-5-carboxamide], 4.2 µM; as for `Cc1cc2cc(CNC(=O)c3ccno3)ccc2[nH]1` [Compound 26, N-[(2-methyl-1H-indol-5-yl)methyl]isoxazole-5-carboxamide], 7.37 µM.
